Source: patent US20140221490A1, “METHODS OF TREATING PAIN” (Hospira, Inc., priority 2011, published 2014)
Where “and” joins values, the source holds several entries; their conditions need not be identical. Identical values can stand only once. Entries after “also recorded” stand apart in the source; their conditions may differ.

What was measured:
[1] = test system: patients after abdominal or pelvic surgery; experiment: Abdominal or pelvic surgery trial: safety (adverse events, thrombophlebitis scale); assay type: in vivo, human
Method: Patients returned for a safety follow-up 5-9 days after baseline, and received a follow-up telephone call 30 days post-baseline. Safety assessments included physical examinations, laboratory testing, vital signs, 12-lead ECG, and evaluation of thrombophlebitis at the site of study drug injection using a 6-point scale (Table 5 and FIG. 6). AEs were recorded throughout the study.
The proportion of patients reporting ≧30% reduction from baseline in pain intensity was analyzed with the Cochran-Mantel-Haenszel test with center as a stratification variable. Time to meaningful (≧30%) reduction in pain intensity and time to administration of rescue medication were analyzed with Kaplan-Meier survival analysis techniques. Descriptive statistics were used for AEs, laboratory test results, vital signs, thrombophlebitis, and ECG results. Logistic regression was used to estimate the relative risk of cardiovascular events.

[2] = test system: acute moderate to severe pain after orthopedic surgery; experiment: Multiple-dose randomized double-blind active- and placebo-controlled trial after orthopedic surgery: efficacy (SPID, pain relief, rescue morphine, patient global evaluation); assay type: in vivo, human
Method: Patients were randomly assigned to diclofenac, ketorolac, or placebo (2:1:1 ratio).
Randomization was stratified by risk group at baseline. The groups were high-risk, non-high-risk, or higher-weight, which was greater than 210 lbs., or 95 kg. Randomization was also stratified by anticipated stay between a long stay, which was longer than 24 hours, versus a shorter stay. The high-risk patients weighed less than 110 lbs.
The diclofenac formulation was Dyloject™. […] Adverse events (adverse effects) were recorded between surgery and randomization, not just after baseline, in order to distinguish treatment-emergent adverse events.
Patients were encouraged to wait at least 30 minutes after study drug initiation to request morphine.
Patients assessed their pain at baseline and at specified time points through the next 24 hours. Those who remained at the site longer assessed their pain every three hours until discharged. Patients returned for follow-up 5-9 days after baseline, and they received a follow-up telephone call 30-37 days after baseline.
Efficacy analyses were conducted using Statistical Analysis Software®, and unless otherwise noted refer to the intent-to-treat population. The analysis of area under the pain intensity difference curve, pain intensity difference, area under the pain relief curve, patient global evaluation, and amount of rescue medication were based on analysis of covariance (ANCOVA) models, with treatment and center as factors and baseline pain as a covariate. Confidence intervals were based on the pooled standard deviation obtained from an ANCOVA model. Treatment differences were tested with linear contrasts.
All testing of statistical significance was 2-sided unless the test performed was inherently 1-sided. […] The area under the pain relief curve was analyzed similarly.
The proportion of patients attaining at least 30% reduction in pain intensity and the frequency of rescue medication use were analyzed with Cochran-Mantel-Haenszel tests, with center as a stratification variable.
For area under the curve calculations, evaluations after the administration of rescue medication or after withdrawal due to adverse events (adverse effects) or lack of efficacy were imputed in accordance with prespecified rules. For post hoc analyses of pain intensity, an even more conservative and simplified set of imputation rules was applied.
This was a multicenter, multiple-dose, multiple-day, randomized, double-blind, active- and placebo-controlled, parallel-group study.
Assignments were made according to a computer-generated random-number code. Randomization was also stratified by risk cohort (high-risk, non-high-risk, or high-weight [≧95 kg]) at baseline (see FIG. 10), and by anticipated long stay (>24 hours) versus shorter stay, resulting in six strata within the randomization schedule.
Patients in all treatment groups received a bolus IV injection every 6 hours until discharge. […] All study drugs were blinded to the investigator and the patient; dose levels of the individual study treatments were not blinded.
Patients were encouraged to wait at least 30 minutes after study drug initiation to request morphine, to allow primary study drug to begin to exert analgesic effects but were never denied.
The primary efficacy measure was the sum of pain intensity differences (SPID) over five intervals: 0-24, 0-48, 0-72, 0-96, and 0-120 hours which was calculated by summing the difference in pain intensity (by a 0-100 visual analog scale) from baseline at designated timepoints.

With `O=C(c1ccccc1)c1ccc2n1CCC2C(=O)O` (stereo not shown) [Ketorolac, ketorolac tromethamine] as the compound, how does the “incidence of bleeding-related AEs” value ([1]; 30 mg) read?
Its value is 6.1%.

And the “incidence of cardiovascular AEs” value ([1]; 30 mg)?
Its value is 6.1%.

And the “incidence of treatment-related AEs” value ([1]; 30 mg)?
Its value is 23.2%.

What about the “Abdominal Hematoma” value ([1]; 30 mg (n = 82)) of the same compound?
Its value is 1 (1.2%) n (%).

What about the “Bleeding-related AE: Anemia” value ([1]; 30 mg (n = 82)) of the same compound?
Its value is 2 (2.4%) n (%).

And the “Blood Creatine phosphokinase (CPK) increased” value ([1]; 30 mg (n = 82))?
The value was 12 (14.6%) n (%).

And the Constipation ([1]; 30 mg (n = 82))?
The Constipation was 8 (9.8%) n (%).

And the Diarrhea ([1]; 30 mg (n = 82))?
Its Diarrhea is 6 (7.3%) n (%).

And the Flatulence ([1]; 30 mg (n = 82))?
Its Flatulence is 22 (26.8%) n (%).

What about the Headache ([1]; 30 mg (n = 82)) of the same compound?
The Headache was 14 (17.1%) n (%).

What about the Hematoma ([1]; 30 mg (n = 82)) of the same compound?
Its Hematoma is 0 (0.0%) n (%).

What about the Incision site complication ([1]; 30 mg (n = 82)) of the same compound?
The Incision site complication was 0 (0.0%) n (%).

What about the “Injection site pain, irritation” value ([1]; 30 mg (n = 82)) of the same compound?
Its value is 17 (20.7%) n (%).

And the Insomnia ([1]; 30 mg (n = 82))?
The Insomnia was 7 (8.5%) n (%).

What about the Nausea ([1]; 30 mg (n = 82)) of the same compound?
Its Nausea is 22 (26.8%) n (%).

And the “Number of patients experiencing ≧1 AE” value ([1]; 30 mg (n = 82))?
The value was 72 (87.8%) n (%).

What about the Pruritus ([1]; 30 mg (n = 82)) of the same compound?
The Pruritus was 3 (3.7%) n (%).

And the Pyrexia ([1]; 30 mg (n = 82))?
Its Pyrexia is 9 (11.0%) n (%).

What about the “Rectal Hemorrhage” value ([1]; 30 mg (n = 82)) of the same compound?
The value was 1 (1.2%) n (%).

What about the Tachycardia ([1]; 30 mg (n = 82)) of the same compound?
Its Tachycardia is 4 (4.9%) n (%).

What about the Thrombophlebitis ([1]; 30 mg (n = 82)) of the same compound?
The Thrombophlebitis was 6 (7.3%) n (%).

What about the “Total patients with a Bleeding-Related AE” value ([1]; 30 mg (n = 82)) of the same compound?
Its value is 5 (6.1%) n (%).

And the “Vaginal Hemorrhage” value ([1]; 30 mg (n = 82))?
The value was 0 (0.0%) n (%).

And the Vomiting ([1]; 30 mg (n = 82))?
The Vomiting was 7 (8.5%) n (%).

And the Wound complication ([1]; 30 mg (n = 82))?
Its Wound complication is 1 (1.2%) n (%).

And the Wound dehiscence ([1]; 30 mg (n = 82))?
The Wound dehiscence was 1 (1.2%) n (%).

What about the “Total Patients on Concomitant Anticoagulants with a Bleeding-Related AE” value ([1]; 30 mg, 49 on anticoagulants) of the same compound?
Its value is 3 (6.1%) n (%).

What about the “subjects reporting ≧1 bleeding-related AE among subjects receiving anticoagulants” value ([1]; ketorolac group (3/49), post hoc analysis) of the same compound?
The value was 6.1%.

And the “total pain relief vs placebo” value ([2]; 0-24, 0-48, 0-72, 0-96, 0-120 hours, P<0.0001)?
The value was “significantly better”.

And the “mean sum of pain intensity differences (SPID) vs placebo” value ([2]; all time intervals 0-24 to 0-120 hours, P<0.0001)?
Its value is “significantly better; also recorded: significantly greater”.

And the “patients rating their drug as “very good” or “excellent” (patient global evaluation)” value ([2]; at last assessment)?
The value was 57.6%.

What about the “SPID scores vs placebo, higher-weight group” value ([2]; diclofenac 50 mg, ketorolac 30 mg, all time intervals, P<0.05) of the same compound?
The value was “better with both diclofenac 50 mg and ketorolac 30 mg compared with placebo”.

What about the “patients achieving clinically meaningful pain reduction (≧30% reduction in intensity)” value ([2]; dose by risk cohort, IV every 6 hours) of the same compound?
The value was 75%.

What about the “amount of morphine used” value ([2]; elderly patients, low dose (diclofenac 18.75 mg, ketorolac 15 mg)) of the same compound?
The value was 14.9 mg.

And the “median time from administration of study drug to administration of rescue medication” value ([2]; human, in vivo)?
Its value is 137.0 min and 137 min.

And the “time at which pain intensity difference first significantly differed from placebo (onset of analgesia)” value ([2]; human, in vivo)?
The value was 30 min.

And the “total rescue morphine requirement” value ([2]; over the first five days)?
The value was 18.1 mg.
